Counter-ions that a name gives are not always drawn.
Experiments:
Type in all cases: physicochemical
[1] = Long-term/accelerated stability; details: for Crystal form: standing up to 6 months, in Table 21 the cell wraps: 'Did not' + 'change'; for physical and chemical stability: 25° C./60 RH and 40° C./75 RH for 6 months
[2] = Crystal form stability study (influencing-factor experiments)
[3] = DVS (dynamic vapor sorption) testing; details: for desorption process versus adsorption process: humidity changing from 0% to 95% RH
Method: DVS refers to dynamic vapor sorption: Surface Measurement Systems instrinsic was adopted; the humidity started at 50%, the humidity range of the investigation was 0%-95%, and the humidity was increased in increments of 10%; the criterion was that each gradient mass change dM/dT is ≤0.002%, TMAX 360 min, two cycles.

[4] = light exposure (4500 Lux), 5 days
[5] = light exposure (4500 Lux), 10 days
[6] = light exposure (4500 Lux), 30 days
[7] = accelerated experimental conditions (70% RH)
[8] = normal storage conditions (25° C. and 60% RH)

CCc1cc2ncc(CN3CCN4c5ccc(C(=O)NC)nc5COC[C@H]4C3)cc2[nH]c1=O [Crystal form I of fumarate, (R)-3-((7-ethyl-6-oxo-5,6-dihydro-1,5-naphthyridin-3-yl)methyl)-N-methyl-1,2,3,4,4a,5-hexahydro-7H-pyrazino[2,1-c]pyrido[3,2-e][1,4]oxazepine-9-carboxamide]
Purity % 1 month ([1]; 25° C./60% RH): 99.8%
Purity % 2 months ([1]; 25° C./60% RH): 99.8%
Purity % 3 months ([1]; 25° C./60% RH): 99.8%
Purity % 6 months ([1]; 25° C./60% RH): 99.8%
Purity % Initial ([1]; 25° C./60% RH): 99.8%
Crystal form ([1]; 25° C./60% RH): Did not
physical and chemical stability [1]: good physical and chemical stability
Purity % 1 month ([1]; 40° C./75% RH): 99.8%
Purity % 2 months ([1]; 40° C./75% RH): 99.8%
Purity % 3 months ([1]; 40° C./75% RH): 99.8%
Purity % 6 months ([1]; 40° C./75% RH): 99.8%
Purity % Initial ([1]; 40° C./75% RH): 99.8%
Crystal form ([1]; 40° C./75% RH): Did not
Color and state ([2]; 40° C., 5 days): Off-white solid
Crystal form ([2]; 40° C., 5 days): Did not change
Purity % ([2]; 40° C., 5 days): 99.8%
Color and state ([2]; 40° C., 10 days): Off-white solid
Crystal form ([2]; 40° C., 10 days): Did not change
Purity % ([2]; 40° C., 10 days): 99.7%
Color and state ([2]; 40° C., 30 days): Off-white solid
Crystal form ([2]; 40° C., 30 days): Did not change
Purity % ([2]; 40° C., 30 days): 99.7%
Color and state ([2]; 60° C., 5 days): Off-white solid
Crystal form ([2]; 60° C., 5 days): Did not change
Purity % ([2]; 60° C., 5 days): 99.8%
Color and state ([2]; 60° C., 10 days): Off-white solid
Crystal form ([2]; 60° C., 10 days): Did not change
Purity % ([2]; 60° C., 10 days): 99.7%
Color and state ([2]; 60° C., 30 days): Off-white solid
Crystal form ([2]; 60° C., 30 days): Did not change
Purity % ([2]; 60° C., 30 days): 99.6%
Color and state ([2]; 75% RH, 5 days): Off-white solid
Crystal form ([2]; 75% RH, 5 days): Did not change
Purity % ([2]; 75% RH, 5 days): 99.8%
Color and state ([2]; 75% RH, 10 days): Off-white solid
Crystal form ([2]; 75% RH, 10 days): Did not change
Purity % ([2]; 75% RH, 10 days): 99.8%
Color and state ([2]; 75% RH, 30 days): Off-white solid
Crystal form ([2]; 75% RH, 30 days): Did not change
Purity % ([2]; 75% RH, 30 days): 99.8%
Color and state ([2]; 92.5% RH, 5 days): Off-white solid
Crystal form ([2]; 92.5% RH, 5 days): Did not change
Purity % ([2]; 92.5% RH, 5 days): 99.8%
Color and state ([2]; 92.5% RH, 10 days): Off-white solid
Crystal form ([2]; 92.5% RH, 10 days): Did not change
Purity % ([2]; 92.5% RH, 10 days): 99.8%
Color and state ([2]; 92.5% RH, 30 days): Off-white solid
Crystal form ([2]; 92.5% RH, 30 days): Did not change
Purity % ([2]; 92.5% RH, 30 days): 99.8%
Color and state ([2]; Initial, 0 days): Off-white solid
Purity % ([2]; Initial, 0 days): 99.8%
physical and chemical stability ([2]; high temperatures of 40° C. and 60° C. and high humidities of 75% and 92.5% for 30 days): good physical and chemical stability
Color and state [2, 4]: Off-white solid
Crystal form [2, 4]: Did not change
Purity % [2, 4]: 99.4%
Color and state [2, 5]: Off-white solid
Crystal form [2, 5]: Did not change
Purity % [2, 5]: 99.0%
Color and state [2, 6]: Off-white solid
Crystal form [2, 6]: Did not change
Purity % [2, 6]: 97.0%
hygroscopic weight gain [3, 7]: about 0.24%
crystal form re-identified after DVS testing [3]: did not change
hygroscopic weight gain ([3]; extreme conditions (90% RH)): about 1.380%
desorption process versus adsorption process [3]: substantially overlapped
hygroscopic weight gain [3, 8]: about 0.21%

CCc1cc2ncc(CN3CCN4c5ccc(C(=O)NC)nc5COC[C@H]4C3)cc2[nH]c1=O [Crystal form b of hydrochloride, (R)-3-((7-ethyl-6-oxo-5,6-dihydro-1,5-naphthyridin-3-yl)methyl)-N-methyl-1,2,3,4,4a,5-hexahydro-7H-pyrazino[2,1-c]pyrido[3,2-e][1,4]oxazepine-9-carboxamide]
Purity % 1 month ([1]; 25° C./60% RH): 99.7%
Purity % 2 months ([1]; 25° C./60% RH): 99.7%
Purity % 3 months ([1]; 25° C./60% RH): 99.7%
Purity % 6 months ([1]; 25° C./60% RH): 99.7%
Purity % Initial ([1]; 25° C./60% RH): 99.7%
Crystal form ([1]; 25° C./60% RH): Did not
physical and chemical stability [1]: good physical and chemical stability
Purity % 1 month ([1]; 40° C./75% RH): 99.7%
Purity % 2 months ([1]; 40° C./75% RH): 99.7%
Purity % 3 months ([1]; 40° C./75% RH): 99.7%
Purity % 6 months ([1]; 40° C./75% RH): 99.7%
Purity % Initial ([1]; 40° C./75% RH): 99.7%
Crystal form ([1]; 40° C./75% RH): Did not
hygroscopic weight gain [3, 7]: about 3.65%
crystal form re-identified after DVS testing [3]: did not change
hygroscopic weight gain ([3]; extreme conditions (90% RH)): about 4.60%
desorption process versus adsorption process [3]: substantially overlapped
hygroscopic weight gain [3, 8]: about 3.26%
